The source made the active and inactive calls. The rule behind the calls is not given here.

25 compounds from PubChem BioAssay AID1259408 (Genetic Toxicology Data Bank (GENE-TOX), 2018) can be followed below.

The data set deals with GENE-TOX genotoxicity assays, various organisms and cells. Briefly: GENE-TOX mutagenicity studies. Conditions: for call: Assay Type: In vivo carcinogenicity studies.
Setting [1] is: Species/Cell Type: Escherichia coli polA (W3110 vs P3478), Assay Type: Rec-assay, DNA effects (bacterial DNA repair), Assay Code: RE2-, Evaluation Type: Evaluation A (Pre-1980).
The mark [2] stands for this setting: Species/Cell Type: Escherichia coli polA (W3119 vs P3478), Assay Type: Rec-assay, DNA effects (bacterial DNA repair), Assay Code: RE1T, Evaluation Type: Evaluation A (Pre-1980).
Setting [3] is: Species/Cell Type: Nonhuman, Assay Code: CCGT, Evaluation Type: Evaluation A (Pre-1980).
Setting [4] is: Species/Cell Type: Nonhuman, Assay Type: Sister-chromatid exchange (SCE) in vivo, Assay Code: SC3+, Evaluation Type: Evaluation B (Post-1980).
Where [5] appears, read: Species/Cell Type: Saccharomyces cerevisiae, Assay Type: Mitotic recombination or gene conversion, Assay Code: YEH-, Evaluation Type: Evaluation A (Pre-1980).
Where [6] appears, read: Species/Cell Type: Salmonella typhimurium (one or more of the five standard strains: TA98, TA100, TA1535, TA1537, and TA1538), Assay Type: Histidine reverse gene mutation, Ames assay, Assay Code: SAL-, Evaluation Type: Evaluation A (Pre-1980).
[7] abbreviates: Species/Cell Type: Salmonella typhimurium (one or more of the five standard strains: TA98, TA100, TA1535, TA1537, and TA1538), Assay Type: Histidine reverse gene mutation, Ames assay, Assay Code: SAL+, Evaluation Type: Evaluation A (Pre-1980).
The mark [8] stands for this setting: Species/Cell Type: Salmonella typhimurium (one or more of the five standard strains: TA98, TA100, TA1535, TA1537, and TA1538), Assay Type: Histidine reverse gene mutation, Ames assay, Assay Code: SALT, Evaluation Type: Evaluation A (Pre-1980).
Where [9] appears, read: Species/Cell Type: Nonhuman, Assay Code: CCG+L, Evaluation Type: Evaluation A (Pre-1980).
Where [10] appears, read: Species/Cell Type: Nonhuman, Assay Type: Sister-chromatid exchange (SCE) in vitro, Assay Code: SC2+, Evaluation Type: Evaluation B (Post-1980).
The mark [11] stands for this setting: Species/Cell Type: Mammalian polychromatic erythrocytes, Assay Type: Micronucleus test, chromosome aberrations, Assay Code: MNT+U, Dose Response: Unconfirmed positive response, Evaluation Type: Evaluation B (Post-1980).

As for `c1ccc2c(c1)ccc1ccccc12`, the mutagenic call runs as follows: (Species/Cell Type: Allium cepa, Assay Type: Chromosome aberrations, Assay Code: ALC+, Evaluation Type: Evaluation A (Pre-1980)) “active; positive”; under setting [1], “inactive; negative”; under setting [2], “no conclusion”; (Species/Cell Type: Fischer rat embryo (RLV/1706) cells, Assay Type: Cell transformation, viral enhanced, Assay Code: CTRT, Evaluation Type: Evaluation A (Pre-1980)) “no conclusion”; (Species/Cell Type: Human diploid fibroblasts, Assay Type: Unscheduled DNA synthesis (UDS) in vitro, DNA effects, Assay Code: UDH-, Evaluation Type: Evaluation A (Pre-1980)) “inactive; negative”; (Species/Cell Type: Mammalian polychromatic erythrocytes, Assay Type: Micronucleus test, chromosome aberrations, Assay Code: MNTT, Evaluation Type: Evaluation A (Pre-1980)) “no conclusion”. In addition, the mutagenic call by setting is: (Species/Cell Type: Mouse (BALB/c-3T3) cells, Assay Type: Cell transformation, Assay Code: CTB-, Evaluation Type: Evaluation A (Pre-1980)) “inactive; negative”; (Species/Cell Type: Mouse embryo (AKR/ME) cells, Assay Type: Cell transformation, Assay Code: CTK+, Evaluation Type: Evaluation A (Pre-1980)) “active; positive”; (Species/Cell Type: Mouse prostate cells, Assay Type: Cell transformation, Assay Code: CTM-, Evaluation Type: Evaluation A (Pre-1980)) “inactive; negative”; (Species/Cell Type: Nonhuman, Assay Type: Chromosome aberrations in vitro, Assay Code: CY&-, Evaluation Type: Evaluation A (Pre-1980)) “inactive; negative”; (Species/Cell Type: Nonhuman, Assay Type: Sister-chromatid exchange (SCE) in vitro, Assay Code: SC2-, Evaluation Type: Evaluation A (Pre-1980)) “inactive; negative”; under setting [4], “active; positive”. The mutagenic call reads like this: (Species/Cell Type: Nonhuman, Assay Type: Sister-chromatid exchange (SCE) in vivo, Assay Code: SC3T, Evaluation Type: Evaluation A (Pre-1980)) “no conclusion”; under setting [5], “inactive; negative”; under setting [6], “inactive; negative”; (Species/Cell Type: Salmonella typhimurium, Assay Type: Forward and reverse gene mutation, host-mediated assay, Assay Code: HMA-, Evaluation Type: Evaluation A (Pre-1980)) “inactive; negative”; (Species/Cell Type: Syrian hamster embryo (SHE) cells, Assay Type: Cell transformation, clonal assay, Assay Code: CTC-, Evaluation Type: Evaluation A (Pre-1980)) “inactive; negative”. The call under setting [3] is recorded as “no conclusion”.
Regarding `O=C1CCC(=O)N1CN1CCOCC1`, the mutagenic call (Species/Cell Type: Arabidopsis species, Assay Type: Gene mutation, Assay Code: ARM-, Evaluation Type: Evaluation A (Pre-1980)) was “inactive; negative”.
In the case of `CC(C)NNC(=O)c1ccncc1`, the mutagenic call under setting [4] is “active; positive”.
In the case of `O=c1ccc2ccccc2[nH]1`, the mutagenic call under setting [6] is “inactive; negative”.
As for `CC(=O)OC(c1ccc2c(c1)OCO2)C1CO1` (stereo not drawn), under setting [7], the mutagenic call was “active; positive”.
Take `NS(=O)(=O)c1cc2c(cc1Cl)NC=NS2(=O)=O`: the mutagenic call under setting [8] is “no conclusion”.
In the case of `C1=C[C@H]2O[C@H]2c2c1cc1ccc3cccc4ccc2c1c34`, the mutagenic call by setting is: (Species/Cell Type: Chinese hamster lung (V79) cells, Assay Type: Forward gene mutation at the HPRT or ouabain locus, Assay Code: V79-, Evaluation Type: Evaluation A (Pre-1980)) “inactive; negative”; under setting [7], “active; positive”. Besides, the call under setting [3] was “no conclusion”.
Turning to `OC[C@@H](O)[C@@H](O)[C@H](O)[C@@H](O)CO`, the mutagenic call by setting is: (Species/Cell Type: Drosophila melanogaster, Assay Type: Aneuploidy, whole sex chromosome loss, chromosome aberrations, Assay Code: DAC-M, Evaluation Type: Evaluation A (Pre-1980)) “inactive; negative”; (Species/Cell Type: Drosophila melanogaster, Assay Type: Sex-linked recessive lethal gene mutation, Assay Code: SRLT, Evaluation Type: Evaluation A (Pre-1980)) “no conclusion”; (Species/Cell Type: Rodents, Sex: Male, Assay Type: Dominant lethal test, Assay Code: DLT-, Evaluation Type: Evaluation A (Pre-1980)) “inactive; negative”.
Take `CC(=O)Nc1nc(-c2ccc([N+](=O)[O-])s2)cs1`: the mutagenic call under setting [8] is listed as “no conclusion”.
In the case of `CNC(=O)Oc1ccc(C)c(C)c1`, the mutagenic call reads like this: (Species/Cell Type: Bacillus subtilis (H17 vs M45T), Assay Type: Rec-assay, spot test, DNA effects (bacterial DNA repair), Assay Code: REX-, Evaluation Type: Evaluation A (Pre-1980)) “inactive; negative”; (Species/Cell Type: Escherichia coli WP2, Assay Type: Tryptophan reverse gene mutation, Assay Code: WP2-, Evaluation Type: Evaluation A (Pre-1980)) “inactive; negative”.
For the compound `CCCCCCN(N=O)C(N)=O`, under setting [7], the mutagenic call was “active; positive”.
`O=C(O)c1ccccc1C(=O)Nc1cccc2ccccc12`: the mutagenic call (Species/Cell Type: Hordeum vulgare (barley), Assay Type: Chromosome aberrations, Assay Code: HOC+, Evaluation Type: Evaluation A (Pre-1980)) is “active; positive” and the mutagenic call (Species/Cell Type: Vicia faba, Assay Type: Chromosome aberrations, Assay Code: VIC+, Evaluation Type: Evaluation A (Pre-1980)) is “active; positive”.
On to `Nc1ccc(N=Nc2ccccc2)cc1`, for which the mutagenic call reads like this: under setting [1], “inactive; negative”; under setting [2], “no conclusion”; (Species/Cell Type: Fischer rat embryo (RLV/1706) cells, Assay Type: Cell transformation, viral enhanced, Assay Code: CTR-, Evaluation Type: Evaluation A (Pre-1980)) “inactive; negative”; (Species/Cell Type: Mouse embryo (AKR/ME) cells, Assay Type: Cell transformation, Assay Code: CTK-, Evaluation Type: Evaluation A (Pre-1980)) “inactive; negative”; under setting [10], “active; positive”; under setting [4], “active; positive”. In addition, the mutagenic call (Species/Cell Type: Rat primary hepatocytes, Assay Type: Unscheduled DNA synthesis (UDS) in vitro, DNA effects, Assay Code: UDP+, Evaluation Type: Evaluation A (Pre-1980)) is “active; positive”; the mutagenic call under setting [5] is “inactive; negative”; the mutagenic call (Species/Cell Type: Salmonella typhimurium (one or more of the five standard strains: TA98, TA100, TA1535, TA1537, and TA1538), Assay Type: Histidine reverse gene mutation, Ames assay, Assay Code: SAL+*, Activation: With metabolic activation, Evaluation Type: Evaluation A (Pre-1980)) was “active; positive”; the mutagenic call (Species/Cell Type: Salmonella typhimurium, Assay Type: Forward and reverse gene mutation, host-mediated assay, Assay Code: HMA+, Evaluation Type: Evaluation A (Pre-1980)) was “active; positive”; the mutagenic call (Species/Cell Type: Syrian hamster embryo (SHE) cells, Assay Type: Cell transformation, clonal assay, Assay Code: CTC+, Evaluation Type: Evaluation A (Pre-1980)) is “active; positive”. Further, the call under setting [9] was “active; positive”.
With `Cc1ccc(N)cc1Cl`, for the setting “Species/Cell Type: Nonhuman, Assay Code: CCG-, Evaluation Type: Evaluation A (Pre-1980)”, the call is “inactive; negative”.
With `Nc1nc2c(ncn2[C@H]2C[C@H](O)[C@@H](CO)O2)c(=O)[nH]1`, where the note is “Species/Cell Type: Glycine max (soybean), Assay Type: Gene mutation, Assay Code: GLM-, Evaluation Type: Evaluation A (Pre-1980)”, the mutagenic call was “inactive; negative”.
Turning to `N#Cc1ccc2ccccc2c1`, the mutagenic call (Species/Cell Type: Allium cepa, Assay Type: Chromosome aberrations, Assay Code: ALC+D, Dose Response: With dose response, Evaluation Type: Evaluation A (Pre-1980)) was “active; positive”.
For the compound `Cl/C=C/CCl`, the mutagenic call under setting [7] is “active; positive”.
Take `CC(=O)NN`: the mutagenic call under setting [11] was “active; positive”.
On to `CO[C@@]12[C@H](COC(N)=O)C3=C(C(=O)C(C)=C(N)C3=O)N1C[C@H]1[C@@H]2N1C` (stereo partly drawn), for which the mutagenic call (Species/Cell Type: Nonhuman, Assay Type: Sister-chromatid exchange (SCE) in vitro, Assay Code: SC2+D, Dose Response: With dose response, Evaluation Type: Evaluation B (Post-1980)) was “active; positive”.
`CC(C)CN(N=O)/C(N)=N/[N+](=O)[O-]`: the mutagenic call was “active; positive” (Species/Cell Type: Arabidopsis species, Assay Type: Gene mutation, Assay Code: ARM+, Evaluation Type: Evaluation A (Pre-1980)) and “active; positive” under setting [7].
As for `CCCCCCCCCCCC(=O)N(C)N=O`, the mutagenic call (Species/Cell Type: Saccharomyces cerevisiae, Assay Type: Reverse gene mutation, Assay Code: YER+, Evaluation Type: Evaluation A (Pre-1980)) was “active; positive”.
With `C/C=C\C(=O)O[C@@H]1C[C@H]2O[C@@H]3C=C(C)[C@@H]4O[C@@H]4[C@]3(C)C1(C)[C@]21CO1`, under setting [8], the mutagenic call is listed as “no conclusion”.
`Cc1c2ccccc2c(CO)c2c3c(ccc12)[C@@H](O)[C@H](O)C=C3`: for the setting “Species/Cell Type: Chinese hamster lung (V79) cells, Assay Type: Forward gene mutation at the HPRT or ouabain locus, Assay Code: V79+, Evaluation Type: Evaluation A (Pre-1980)”, the mutagenic call is “active; positive”. Besides, the call under setting [9] was “active; positive”.
In the case of `NC(=O)c1ccccc1`, the mutagenic call (Species/Cell Type: Human, Assay Type: Sister-chromatid exchange (SCE) in vitro, Assay Code: SC1+, Evaluation Type: Evaluation B (Post-1980)) was “active; positive”; the mutagenic call under setting [11] is “active; positive”; the mutagenic call under setting [10] is “active; positive”.
In the case of `O=C1c2ccccc2C(=O)N1CC1CO1` (stereo not drawn), under “Species/Cell Type: Chinese hamster ovary (CHO) cells, Assay Type: Forward gene mutation at the HPRT locus, Assay Code: CHO+, Evaluation Type: Evaluation B (Post-1980)”, the mutagenic call is “active; positive”.
